Assay [1] has as its target Ras GEF SOS (Son of Sevenless) (Homo sapiens, UniProt Q07889). Kind of assay: SOS-mediated nucleotide exchange on Ras (BODIPY-GDP fluorescence). To be noted: SOS-mediated exchange of BODIPY-GDP for GTP on Ras. Format: biochemical. Put shortly:
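Exchange rates were taken from single-exponential fits of the fluorescence time course as BODIPY-GDP on Ras was replaced by GTP. Compound went in first, then GTP and SOS. Mean rates plotted against concentration gave EC50 by four-parameter dose-response fitting.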

In a further assay the target is T1, Son of Sevenless (SOS) (Homo sapiens, UniProt Q07889).
T1 sequence (Q07889 564-1049 limits assumed): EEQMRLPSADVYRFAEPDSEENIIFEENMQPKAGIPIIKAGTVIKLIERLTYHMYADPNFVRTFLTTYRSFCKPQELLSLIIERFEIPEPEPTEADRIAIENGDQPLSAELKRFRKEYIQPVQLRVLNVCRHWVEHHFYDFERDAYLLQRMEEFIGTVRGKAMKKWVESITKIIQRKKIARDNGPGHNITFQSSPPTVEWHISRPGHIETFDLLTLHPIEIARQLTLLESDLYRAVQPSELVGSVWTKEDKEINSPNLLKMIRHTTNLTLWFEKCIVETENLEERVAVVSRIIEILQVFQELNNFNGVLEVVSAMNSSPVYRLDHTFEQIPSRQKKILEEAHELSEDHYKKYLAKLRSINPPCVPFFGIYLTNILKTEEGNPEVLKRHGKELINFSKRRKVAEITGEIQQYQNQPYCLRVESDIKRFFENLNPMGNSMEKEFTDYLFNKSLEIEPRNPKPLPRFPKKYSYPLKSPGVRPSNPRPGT
Kind of assay: Binding to SOS, fluorescence polarization anisotropy (FPA) probe displacement. To be noted: displacement of FITC-conjugated probe (Example 285), affinity calculated from IC50. Put shortly:
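Test compounds were titrated against SOS pre-bound to a fluorescein-labelled probe, with anisotropy plotted versus compound concentration. Binding affinities were derived from IC50 values obtained by four-parameter dose-response fitting.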

Assay [2] concerns H727 lung cancer cell lines (G12V K-Ras mutation). In words: Inhibition of cancer cell proliferation (CellTiter-Glo). Format: cell-based. To be noted: Homo sapiens, NCI-H727, 72 h, read-out: Cell proliferation activity (H727 cancer cell line proliferation IC50). The procedure: Compounds of the present invention were measured for their ability to kill H727 lung cancer cell lines, which contain a G12V K-Ras mutation. Cell proliferation experiments were conducted in 96-well plates. Cells were plated at 1000 cells/well, incubated overnight, followed by treatment with a dose range of compound for 3 days at 37° C. Cell proliferation was assessed using a CellTiter-Glo assay (Promega) according to the manufacturer's protocol. Data were normalized to DMSO control. IC50 values were determined using a four-parameter dose-response (variable slope) equation. These assays are performed in a manner analogous to the assay disclosed in: Burns, M. C.; Sun, Q.; Daniels, R. N.; Camper, D. V.; Kennedy, J. P.; Phan, J.; Olejniczak, E. O.; Lee, T.; Waterson, A. G.; Rossanese, O. W.; Fesik, S. W. “Approach for targeting Ras with small molecules that activate SOS-mediated nucleotide exchange” Proc. Natl. Acad. Sci. 2014; 11(9): 3401-3406. PMCID: PMC3948241.

The mark [3] stands for this setting: H727 cells, 3 days treatment, CellTiter-Glo.

Structures can show the parent of a compound that is named as a salt. Where two headings read alike, the source gives them in different places.

Chain of Ras GEF SOS (Son of Sevenless) (P01112 1-166 partner limits assumed, one chain of several): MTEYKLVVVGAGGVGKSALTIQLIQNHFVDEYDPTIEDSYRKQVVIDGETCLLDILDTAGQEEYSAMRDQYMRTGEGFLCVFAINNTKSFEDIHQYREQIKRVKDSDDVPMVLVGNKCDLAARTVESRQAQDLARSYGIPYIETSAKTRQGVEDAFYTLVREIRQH

The term EC50 denotes the midpoint of the concentration-response curve. High values mean a less potent agent, low ones a more potent agent. What is called Ki is a dissociation constant, usually derived from enzyme kinetics or from competition with a known ligand. In assay [1], `CCc1cc(Cn2c(N3CCNCC3)nc3cc(C)c(C)cc32)cc(Cl)c1F` [Example 48, 1-(3-chloro-5-ethyl-4-fluorobenzyl)-5,6-dimethyl-2-(piperazin-1-yl)-1H-benzo[d]imidazole trifluoroacetate] came in with a concentration giving a half-maximal response (EC50) of 1000 to 5000 nM. In addition, the Ki at Son of Sevenless (SOS) is 1000 to 5000 nM. Further, the IC50 in assay [2] fell in the range of 1 to 5 µM.
As for `Fc1ccc(Cn2c(N3CCNCC3)nc3c(-c4cccnc4)cccc32)cc1Cl` [Example 89, 1-(3-chloro-4-fluorobenzyl)-2-(piperazin-1-yl)-4-(pyridin-3-yl)-1H-benzo[d]imidazole], the concentration for a half-maximal effect (EC50) in assay [1] fell in the range of 1000 to 5000 nM. For the same molecule, at Son of Sevenless (SOS), the inhibition constant Ki is 1000 to 5000 nM. In assay [2] (setting [3]), the IC50 is 5 to 20 µM.
On to `Cc1cc(CN2CCCCC2)c2nc(N3CCNCC3)n(Cc3cc(C)c(F)c(C)c3)c2c1` [Example 125, 1-(4-fluoro-3,5-dimethylbenzyl)-6-methyl-2-(piperazin-1-yl)-4-(piperidin-1-ylmethyl)-1H-benzo[d]imidazole trifluoroacetate], for which the EC50 in assay [1] was 1000 to 5000 nM. Further, on Son of Sevenless (SOS), the inhibition constant (Ki) is 1000 to 5000 nM. In assay [2], the IC50 fell in the range of 1 to 5 µM.
In turn, `Cc1cc2c(nc(N3CCNCC3)n2Cc2ccc(Cl)cc2)c(-c2ccccc2Cl)c1C` [Example 106, 1-(4-chlorobenzyl)-4-(2-chlorophenyl)-5,6-dimethyl-2-(piperazin-1-yl)-1H-benzo[d]imidazole trifluoroacetate] returned an EC50 in assay [1] of 1000 to 5000 nM. Besides, the Ki at Son of Sevenless (SOS) is 1000 to 5000 nM. Also, the IC50 in assay [2] is 1 to 5 µM.
In the case of `Cc1cc(-c2ccccc2C)c2nc(N3CCNCC3)n(Cc3ccc(F)c(Cl)c3)c2c1` [Example 120, 1-(3-chloro-4-fluorobenzyl)-6-methyl-2-(piperazin-1-yl)-4-(o-tolyl)-1H-benzo[d]imidazole trifluoroacetate], in assay [1], the EC50 was in the range of 1000 to 5000 nM. Also, the Ki at Son of Sevenless (SOS) is < 500 nM. Also, the IC50 in assay [2] fell in the range of 1 to 5 µM.
In assay [1], `Cc1cc2c(nc(N3CCNCC3)n2Cc2ccc(F)c(Cl)c2)c(-c2ccccc2)c1C` [Example 104, 1-(3-chloro-4-fluorobenzyl)-5,6-dimethyl-4-phenyl-2-(piperazin-1-yl)-1H-benzo[d]imidazole trifluoroacetate] returned an EC50 of 1000 to 5000 nM. Also, the Ki on Son of Sevenless (SOS) is 1000 to 5000 nM. Further, in assay [2], the IC50 lay in the range of 1 to 5 µM.
In the case of `Cc1cc(Cn2c(N3CC(CN)C3)nc3ccc(OC(C)C(F)(F)F)nc32)ccc1F` (stereo not drawn) [Example 259, (1-(3-(4-fluoro-3-methylbenzyl)-5-((1,1,1-trifluorpropan-2-yl)oxy)-3H-imidazo[4,5-b]pyridin-2-yl)azetidin-3-yl)methanamine], the EC50 in assay [1] lay in the range of 5000 to 30000 nM. Also, the inhibition constant Ki on Son of Sevenless (SOS) was > 5000 nM. In addition, the IC50 in assay [2] (setting [3]) is < 1 µM.
The molecule `Cc1cc(Cn2c(NCC3CNC3)nc3ccc(OC(C)C(F)(F)F)nc32)ccc1F` (stereo not drawn) [Example 260, N-(azetidin-3-ylmethyl)-3-(4-fluoro-3-methylbenzyl)-5-((1,1,1-trifluoropropan-2-yl)oxy)-3H-imidazo[4,5-b]pyridin-2-amine] returned a half-maximal effective concentration (EC50) in assay [1] of 5000 to 30000 nM. The Ki at Son of Sevenless (SOS) was > 5000 nM. Besides, in assay [2] (setting [3]), the IC50 is < 1 µM.
As for `Cc1cc(-c2ccccc2Cl)c2nc(N3CCNCC3)n(Cc3ccc(F)c(Cl)c3)c2c1` [Example 118, 1-(3-chloro-4-fluorobenzyl)-4-(2-chlorophenyl)-6-methyl-2-(piperazin-1-yl)-1H-benzo[d]imidazole trifluoroacetate], in assay [1], the EC50 is 1000 to 5000 nM. Besides, the Ki on Son of Sevenless (SOS) was < 500 nM. Also, in assay [2], the IC50 is 1 to 5 µM.
Consider `Cc1cc(-c2ccccc2Cl)c2nc(N3CCNCC3)n(Cc3cc(C)c(F)c(C)c3)c2c1` [Example 267, 4-(2-chlorophenyl)-1-[(4-fluoro-3,5-dimethylphenyl)methyl]-6-methyl-2-piperazin-1-ylbenzimidazole], for which, in assay [1], the concentration for a half-maximal effect (EC50) is < 1000 nM. Moreover, on Son of Sevenless (SOS), the Ki is < 500 nM. In addition, in assay [2] (setting [3]), the IC50 was in the range of 1 to 5 µM.
Turning to `COc1ccccc1-c1cccc2c1nc(N1CCNCC1)n2Cc1ccc(F)c(Cl)c1` [Example 81, 1-(3-chloro-4-fluorobenzyl)-4-(2-methoxyphenyl)-2-(piperazin-1-yl)-1H-benzo[d]imidazole trifluoroacetate], the EC50 in assay [1] is 1000 to 5000 nM. For the same molecule, on Son of Sevenless (SOS), the inhibition constant Ki is 500 to 1000 nM. In assay [2], the IC50 fell in the range of 5 to 20 µM.
`Cc1cc2c(nc(NCCN)n2Cc2ccc(F)c(Cl)c2)c(-c2ccccc2Cl)c1C` [Example 113, N^1-(1-(3-chloro-4-fluorobenzyl)-4-(2-chlorophenyl)-5,6-dimethyl-1H-benzo[d]imidazol-2-yl)ethane-1,2-diamine trifluoroacetate] registered a concentration giving a half-maximal response (EC50) in assay [1] of 1000 to 5000 nM. In addition, the Ki at Son of Sevenless (SOS) was < 500 nM. Also, the IC50 in assay [2] was in the range of 1 to 5 µM.
For `C=C[C@H](N)c1cc(C)cc2c1nc(N1CCNCC1)n2Cc1cc(C)c(F)c(C)c1` [Example 162, (S)-1-(1-(4-fluoro-3,5-dimethylbenzyl)-6-methyl-2-(piperazin-1-yl)-1H-benzo[d]imidazol-4-yl)prop-2-en-1-amine trifluoroacetate] the same measures were 1000 to 5000 nM, 1000 to 5000 nM and 1 to 5 µM.
Regarding `C=Cc1cc(Cn2c(N3CCNCC3)nc3cc(C)c(C)cc32)cc(C=C)c1F` [Example 46, 1-(4-fluoro-3,5-divinylbenzyl)-5,6-dimethyl-2-(piperazin-1-yl)-1H-benzo[d]imidazole trifluoroacetate], in assay [1], the EC50 lay in the range of 5000 to 30000 nM. Further, the inhibition constant (Ki) at Son of Sevenless (SOS) was > 5000 nM. Besides, the IC50 in assay [2] lay in the range of 1 to 5 µM.
Regarding `Cc1cc2c(nc(NCCN)n2Cc2ccc(F)c(Cl)c2)c(-c2c(C)nn(C)c2C)c1C` [Example 114, N^1-(1-(3-chloro-4-fluorobenzyl)-5,6-dimethyl-4-(1,3,5-trimethyl-1H-pyrazol-4-yl)-1H-benzo[d]imidazol-2-yl)ethane-1,2-diamine trifluoroacetate], the concentration giving a half-maximal response (EC50) in assay [1] fell in the range of 1000 to 5000 nM. Besides, the Ki at Son of Sevenless (SOS) was 1000 to 5000 nM. Also, in assay [2], the IC50 is 5 to 20 µM.
Turning to `CC[C@H](N)c1cc(C)cc2c1nc(N1CCNCC1)n2Cc1cc(C)c(F)c(C)c1` [Example 161, (S)-1-(1-(4-fluoro-3,5-dimethylbenzyl)-6-methyl-2-(piperazin-1-yl)-1H-benzo[d]imidazol-4-yl)propan-1-amine trifluoroacetate], the 50% effective concentration (EC50) in assay [1] is < 1000 nM. Moreover, at Son of Sevenless (SOS), the Ki was 500 to 1000 nM. In assay [2], the IC50 lay in the range of 1 to 5 µM.
As to `Cc1cc(Cn2c(N3CCNCC3)nc3c([C@@H](N)c4ccccc4)cc(Cl)cc32)cc(C)c1F` [Example 159, (S)-(6-chloro-1-(4-fluoro-3,5-dimethylbenzyl)-2-(piperazin-1-yl)-1H-benzo[d]imidazol-4-yl)(phenyl)methanamine trifluoroacetate], in assay [1], the half-maximal effective concentration (EC50) is < 1000 nM. The inhibitory constant (Ki) at Son of Sevenless (SOS) is < 500 nM. In assay [2], the IC50 was < 1 µM.
As for `Cc1cc(OC2CCNC2)c2nc(N3CCNCC3)n(Cc3cc(C)c(F)c(C)c3)c2c1` (stereo not drawn) [Example 317, 1-(4-fluoro-3,5-dimethylbenzyl)-6-methyl-2-(piperazin-1-yl)-4-(pyrrolidin-3-yloxy)-1H-benzo[d]imidazole], in assay [1], the EC50 is < 1000 nM. The Ki at Son of Sevenless (SOS) was 500 to 1000 nM. Moreover, the IC50 in assay [2] (setting [3]) lay in the range of 5 to 20 µM.
Turning to `CNCc1cc(Cl)cc2c1nc(N1CCNCC1)n2Cc1cc(C)c(F)c(C)c1` [Example 129, 1-(6-chloro-1-(4-fluoro-3,5-dimethylbenzyl)-2-(piperazin-1-yl)-1H-benzo[d]imidazol-4-yl)-N-methylmethanamine trifluoroacetate], in assay [1], the EC50 was < 1000 nM. The inhibition constant (Ki) on Son of Sevenless (SOS) was < 500 nM. Further, in assay [2], the IC50 lay in the range of 1 to 5 µM.
Consider `Cc1cc(CN(C)C)c2nc(N3CCNCC3)n(Cc3cc(C)c(F)c(C)c3)c2c1` [Example 128, 1-(1-(4-fluoro-3,5-dimethylbenzyl)-6-methyl-2-(piperazin-1-yl)-1H-benzo[d]imidazol-4-yl)-N,N-dimethylmethanamine trifluoroacetate], for which, in assay [1], the EC50 was < 1000 nM. Besides, the inhibition constant Ki on Son of Sevenless (SOS) was 500 to 1000 nM. In addition, the IC50 in assay [2] was in the range of 1 to 5 µM.
